Reference: the supplement of paper PMC10307832

Experiments:
Experiment in all cases: relative viability (nuclei count vs DMSO), 5 days (fraction); higher = more cells survive
[1] = compound: COC1=CC=C(C=C1)COC2=C(C=C(C=C2)CC3=CN=C(N=C3N)N)OC [GW-2580] + N=C(N)NC(=N)NCCc1ccccc1 [Phenformin] (partner 250 µM)
Outline: (§1)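 Values are medians from duplicate plates. Each reflects relative viability, defined as the nuclei count of treated wells over that of vehicle wells. Lung cancer cell lines in 1536-well plates were pin-tool dosed one day after seeding with one drug alone or with a fixed anchor-drug dose plus five library-drug doses (not always all listed) in √10 steps, then fixed, stained and imaged at 4× after 5 days.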

[2] = compound: COC1=CC=C(C=C1)COC2=C(C=C(C=C2)CC3=CN=C(N=C3N)N)OC [GW-2580] + CC1(C)CCC(c2ccc(Cl)cc2)=C(CN2CCN(c3ccc(C(=O)NS(=O)(=O)c4ccc(N[C@H](CCN5CCOCC5)CSc5ccccc5)c(S(=O)(=O)C(F)(F)F)c4)cc3)CC2)C1 [Navitoclax] (partner 0.5 µM)
Outline: as §1

[3] = compound: Cc1cnc(Nc2ccc(OCCN3CCCC3)cc2)nc1Nc1cccc(S(=O)(=O)NC(C)(C)C)c1 [Fedratinib] + N=C(N)NC(=N)NCCc1ccccc1 [Phenformin] (partner 250 µM)
Outline: as §1

[4] = compound: COC1=CC=C(C=C1)COC2=C(C=C(C=C2)CC3=CN=C(N=C3N)N)OC [GW-2580]
Outline: (§2)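 Vehicle-anchored 1536-well plates of lung cancer cell lines, held overnight at 37 °C, were pinned with five library-drug doses (not always all listed) spaced by √10. No medium change followed over the next 5 days, after which the cells were fixed, permeabilised and Hoechst-stained together and imaged at 4×. Nuclei were counted with MetaXpress, and viability is treated-well nuclei over vehicle-well nuclei, taken as a median across plates. Plates passed with control CV below 25% and at least one doubling.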

[5] = compound: Cc1cnc(Nc2ccc(OCCN3CCCC3)cc2)nc1Nc1cccc(S(=O)(=O)NC(C)(C)C)c1 [Fedratinib]
Outline: as §2

Cell Line	relative viability ([1]; first compound 0.08 µM)	relative viability ([1]; first compound 0.8 µM)	relative viability ([1]; first compound 2.53 µM)	relative viability ([1]; first compound 8 µM)	relative viability ([2]; first compound 0.08 µM)	relative viability ([2]; first compound 0.8 µM)	relative viability ([2]; first compound 2.53 µM)	relative viability ([2]; first compound 8 µM)	relative viability ([3]; first compound 0.1 µM)	relative viability ([3]; first compound 0.3162 µM)	relative viability ([3]; first compound 1 µM)	relative viability ([4]; 0.08 µM)	relative viability ([4]; 0.8 µM)	relative viability ([4]; 2.53 µM)	relative viability ([4]; 8 µM)	relative viability ([5]; 0.1 µM)	relative viability ([5]; 0.3162 µM)	relative viability ([5]; 1 µM)
NCI-H647	0.605	0.623	0.401	0.661	1.09	1.19	1.18	1.3	0.475	0.473	0.309	1.12	1.14	0.846	0.97	0.867	0.952	0.777
NCI-H2023	0.466	0.423	0.336	0.382	0.914	1.06	0.973	1.01	0.431	0.463	0.456	1.12	1.07	0.933	1.06	1.02	0.962	0.754
NCI-H23	0.872	0.768	0.798	0.851	0.77	0.75	0.774	0.87	0.772	0.81	0.716	1.03	1.11	0.983	0.99	1.01	0.908	0.597
NCI-H1944	0.198	0.201	0.169	0.189	1.09	1.1	1.03	0.988	0.194	0.228	0.213	1	0.999	0.972	0.886	0.965	1.01	0.909
NCI-H1793	0.4	0.259	0.314	0.286	0.433	0.266	0.833	0.415	0.27	0.178	0.312	0.95	1.05	0.711	0.852	0.884	0.886	0.619
NCI-H520	0.79	0.59	0.592	0.587	1.18	1.3	1.45	1.25	0.431	0.564	0.399	1.09	1.13	0.894	1.12	0.93	0.997	0.9
A549	0.19	0.193	0.105	0.0849	1.38	1.25	1.12	0.918	–	0.169	0.165	1.01	1.12	0.944	0.932	0.998	0.937	0.958
NCI-H460	0.713	0.576	0.494	0.528	1.46	1.37	0.941	1.15	0.382	0.516	0.459	1.07	1.05	1.01	0.952	0.997	0.974	0.979
EKVX	0.244	0.264	0.212	0.233	0.977	1.03	0.732	0.925	0.251	0.265	0.246	0.962	1.22	0.81	0.941	1.06	0.952	0.978
EPLC-272H	0.272	0.339	–	0.354	1.18	1.08	1.11	1.11	0.3	0.32	0.173	0.995	1.15	0.763	0.891	0.921	0.938	0.327
NCI-H1395	0.452	0.484	0.421	0.438	1.08	1.06	1.13	1.11	0.392	0.378	0.47	0.866	0.979	0.877	0.935	0.784	0.955	0.7
NCI-H2126	0.52	0.535	0.543	0.526	0.915	0.875	0.808	0.921	0.532	0.569	0.498	1.02	1.01	0.979	1.05	0.95	0.98	0.927
LXF-289	0.514	0.521	0.489	0.506	1.02	0.963	0.948	0.821	0.503	0.488	0.517	1.03	1.08	0.988	0.937	0.978	0.997	0.974
NCI-H2009	0.509	0.45	0.409	0.423	1.25	1.22	1.15	1.02	0.334	0.486	0.419	1.06	0.996	0.967	0.888	0.956	1.08	0.987
NCI-H2405	0.401	0.393	0.308	0.333	0.888	0.742	0.928	0.66	0.315	0.412	0.446	0.99	1.13	0.902	0.936	0.937	0.939	0.834
NCI-H1755	0.667	0.631	0.326	0.594	1.04	1.04	0.894	0.831	0.561	0.593	0.518	1.06	1.07	0.944	0.878	0.991	1	0.909
HCC-78	0.743	0.655	0.543	0.583	0.879	1.07	0.631	0.801	0.698	0.703	0.572	0.95	1.21	0.675	0.933	0.87	0.869	0.96
